In ChEMBL document CHEMBL5223084, “Discovery and Preclinical Characterization of Usmarapride (SUVN-D4010): A Potent, Selective 5-HT4 Receptor Partial Agonist for the Treatment of Cognitive Deficits Associated with Alzheimer's Disease” (J Med Chem, 2021):

Experiments:
[1] = Solubility of the compound in water; assay type: physicochemical
[2] = Solubility of the compound in buffer at pH 2 to 7 at 37 degC; assay type: physicochemical
[3] = Apparent permeability of the compound in human Caco-2 cells at 10 uM; assay type: ADME, cell-based
[4] = Tmax in Beagle dog at 1 mg/kg, po; assay type: ADME, organism-based, Canis lupus familiaris; conditions: in vivo
[5] = AUC (0 to 24 hrs) in Beagle dog at 1 mg/kg, po; assay type: ADME, organism-based, Canis lupus familiaris; parameters: dose 1 mg/kg, route po; conditions: in vivo
[6] = Terminal half life in Beagle dog at 1 mg/kg, iv; assay type: ADME, organism-based, Canis lupus familiaris; conditions: in vivo, read-out: beta t1/2 (converted)
[7] = Clearance in Beagle dog at 1 mg/kg, iv; assay type: ADME, organism-based, Canis lupus familiaris; conditions: in vivo
[8] = Volume of distribution in Beagle dog at 1 mg/kg, iv; assay type: ADME, organism-based, Canis lupus familiaris; conditions: in vivo
[9] = Oral bioavailability in Beagle dog at 1 mg/kg; assay type: ADME, organism-based, Canis lupus familiaris; conditions: in vivo
[10] = Acid dissociation constant, pKa of the compound; assay type: physicochemical
[11] = rat, in vivo, po, 3 mg/kg, 24 h
[12] = in vitro; conditions: rat
[13] = in vitro; conditions: human
[14] = in vivo; conditions: Wistar, rat, po, 3 mg/kg
[15] = in vivo; conditions: Wistar, rat, po, 3 mg/kg; remark: listed apart in the source
[16] = in vivo; conditions: Wistar, rat, po, 3 mg/kg; remark: listed apart in the source
[17] = in vivo; conditions: Wistar, rat, po, 3 mg/kg; remark: listed apart in the source
[18] = in vivo; conditions: Wistar, rat, iv, 1 mg/kg
[19] = in vivo; conditions: Wistar, rat, brain and plasma, po, 10 mg/kg
[20] = rat, in vivo, po, 3 mg/kg, 24 h; remark: listed apart in the source
[21] = rat, in vivo, po, 3 mg/kg, 24 h; remark: listed apart in the source

Row | SMILES | Vdss [11] | metabolised at 0.5 h ([12]; liver microsomes) | metabolised at 0.5 h ([13]; liver microsomes) | bioavailability at 24 h [14] | Cmax at 24 h [15] | AUC at 24 h [16] | half-life at 24 h [17] | clearance at 24 h [18] | Kp at 1 h [19] | AUC [20] | further results
1 | COCCCN1CCC(c2nnc(-c3nn(C(C)C)c4ccccc34)o2)CC1.O=C(O)C(=O)O | 8 L/kg | 25.1% | 26.2% |  |  |  |  |  |  |  | solubility [1]: 17.1 mg/mL; solubility [2]: 20 mg/mL; Papp at 10 µM [3]: 38 ×10⁻⁶ cm/s; Tmax [4]: 0.5 h; AUC(0-t) [5]: 711 ng·h/mL; half-life [6]: 6 h; clearance [7]: 18 mL/min/kg; Vd [8]: 5.1 L/kg; bioavailability [9]: 72%; pKa [10]: 8.4
2 | CC(C)n1c(=O)c(C(=O)NCCCN2CCCCC2)c(O)c2ccsc21 [PRX-03140] | 7.6 L/kg |  |  | 2% | 17 ng/mL | 22 ng·h/mL | 1.5 h | 62 mL/min/kg | 1.6 |  | 
3 | CC(C)n1nc(-c2noc(C3CCN(CC4CCOCC4)CC3)n2)c2ccccc21 |  |  |  |  |  |  |  |  |  |  | metabolised at 0.5 h ([12]; microsomes): 64.1%; metabolised at 0.5 h ([13]; microsomes): 40.4%
4 | CC(C)N1CCC(c2nnc(-c3nn(C(C)C)c4ccccc34)o2)CC1 | 10 L/kg | 35.7% | 15.3% |  | 91 ng/mL |  | 1.9 h |  | 3.6 | 133 ng·h/mL | F [21]: 9%

Continued, in another order:

Row | Vdss [11] | metabolised at 0.5 h ([12]; liver microsomes) | metabolised at 0.5 h ([13]; liver microsomes) | bioavailability at 24 h [14] | Cmax at 24 h [15] | AUC at 24 h [16] | half-life at 24 h [17] | clearance at 24 h [18] | Kp at 1 h [19] | AUC [20] | SMILES | further results
5 | 4.9 L/kg | 55.1% | 62.5% | 2.6% | 14 ng/mL | 16 ng·h/mL | 2.3 h | 81 mL/min/kg |  |  | CC(C)n1nc(-c2nnc(C3CCN(CC4CCC4)CC3)o2)c2ccccc21 | 
6 | 8 L/kg | 83.8% | 43.6% |  |  |  | 1.7 h |  |  | 394 ng·h/mL | CC(C)n1nc(-c2nnc(C3CCN(CC4CC4)CC3)o2)c2ccccc21 | 
